# Where “and” joins values, the source holds several entries; their conditions need not be identical. Equal values may be shown once. Entries after “also recorded” stand apart in the source; their conditions may differ.
# Legend:
# [1] = system: pro-inflammation; details: patients with cardiopulmonary bypass surgery; antiviral activity maintained; cited from earlier work
# [2] = system: SARS-CoV-2; assay: Clinical case series: enoximone IV (Perfan) in COVID-19 patients at ICU admission, compared with prior control patients; details: for FiO2 / RESP. RATE: one value per patient; for RESP. SUPPORT: one value per patient 1-4
# [3] = at the doses used, all patients
# [4] = one value per enoximone-treated subject (1-4 = c4-c7)
compound,measurement,setting,value
"CSc1ccc(C(=O)c2[nH]c(=O)[nH]c2C)cc1 [enoximone, 1,3-dihydro-4-methyl-5-[4-(methylthio)benzoyl]-2H-imidazol-2-on]",effectiveness against pro-inflammation compared with methylprednisolone,[1],as effective against pro-inflammation as methylprednisolone
same,time after start of enoximone until breathing calmly and able to call,"[2]; Patient 1, 20 mg IV then perfusion 10 mg/h, monosyllabic upon entry",10 min
same,time until calmer breathing and mobilisation,"[2]; Patient 2, 20 mg IV then 10 mg/h",about 2 days
same,time before the patient had lost the feeling of dyspnea,"[2]; Patient 2, 20 mg IV then 10 mg/h, sputum retention",1 days
same,time until patient breathed optimally and Optiflow could be reduced to 0,"[2]; Patient 3 (COPD Gold III), 20 mg IV then 10 mg/h",a day and a half
same,time until able to breathe calmly and communicate normally,"[2]; Patient 4, bolus then i.v. perfusor 5 mg/hour during 24 hours",≤ 10 min
same,FiO2,[2]; after 24 hrs of Enoximone,60% and 55% and 50%
same,RESP. RATE,[2]; after 24 hrs of Enoximone,15 and 12
same,RESP. SUPPORT,[2]; after 24 hrs of Enoximone,none and Optiflow (3×)
same,FiO2,[2]; after 48 hrs,60% and 50%
same,RESP. RATE,[2]; after 48 hrs,16 and 13
same,RESP. SUPPORT,[2]; after 48 hrs,none (2×) and Optiflow (2×)
same,persistence of beneficial effect,"[2]; after discontinuation of enoximone, all patients",beneficial effect persisted even after discontinuation
same,adverse events,[2]; [3],no clinically relevant adverse events were observed
same,tolerability,[2]; [3],well-tolerated in all patients
same,blood gas analysis,[2]; between before and 1 h after enoximone,minimal improvement in three out of four patients
same,stay in ICU,"[2]; enoximone-treated patients, controls 12-31 days",2 to 5 days
same,discharge from hospital after start of enoximone treatment,"[2]; enoximone-treated patients, controls 18-44 days following start of mechanical ventilation",5 to 12 days
same,overall stay in hospital,"[2]; enoximone-treated patients, controls 22-46 days, Mann-Whitney U test p=0.05",13 to 15 days
same,edema,[2]; following enoximone treatment,decrease of edema
same,oxygenation,"[2]; following enoximone treatment (Table 3, FiO2%)",substantially improved
same,need for mechanical ventilation,"[2]; four enoximone-treated patients vs three controls, Fisher's exact test p=0.029",none of the enoximone-treated patients required mechanical ventilation; also recorded: no need for mechanical ventilation
same,symptomatic relief,[2]; four patients,rapid symptomatic relief in two out of four patients
same,Days mechanical ventilation,[2]; [4],0 days
same,Total days in hospital [=ii + iii + iv],[2]; [4],14 days and 13 days and 15 days
same,Total duration of disease (onset-discharge) [=i + ii + iii + iv),[2]; [4],19 and 20 and 26
same,time to full recovery,[2]; patients 1 and 4,within a few hours
same,time to respond,"[2]; patients 2 and 3 (comorbid obesity or COPD GOLD III), sputum retention",24 to 36 h

# Reference: US20230270724A1, “PDE3 inhibitors for treating viral infections” (priority 2020, published 2023)
